Here are results for two compounds from PubChem BioAssay (NCI).

What all share (experiment): growth of human tumour cells (NCI), 48 h
Experiment [1] deals with U251 CNS.
Experiment [2] relates to K-562 leukemia.
For experiment [3], the system named is HL-60(TB) leukemia.
Experiment [4] concerns SW-620 colon.
For experiment [5], the system named is OVCAR-5 ovarian.
The test system of experiment [6] is NCI-H23 lung.
For experiment [7], the system named is SK-MEL-2 melanoma.
The test system of experiment [8] is TK-10 renal.
For experiment [9], the system named is KM12 colon.
For experiment [10], the system named is MOLT-4 leukemia.

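Grown in 96-well plates, cells were treated for 48 hours with each compound at five concentrations. Insufficient inhibition: endpoint recorded as highest concentration tested. Here, GI50 denotes the concentration required for 50% inhibition of growth. TGI is the concentration that stops growth completely.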

In the case of `CO/N=C1/NC(=O)/C(=C/c2ccc3ncccc3c2)S1`, the GI50 in experiment [1] was 9.39 µM; in experiment [2], above 25 µM; in [3], 13.8 µM; in experiment [4] it was above 25 µM; in [5], 6.16 µM; in experiment [6], 12.2 µM. The GI50 in [7] was 12.1 µM; in experiment [8], 8.01 µM; in experiment [9], above 25 µM; in experiment [10] it was 16.1 µM. Also, the TGI in [1], in [2], in experiment [3], in [4], in [5] and in [6] was above 25 µM throughout. Besides, the TGI in [7], in [8], in experiment [9] and in [10] was above 25 µM in each case.
For `COc1ccc(C(=O)c2cc(OC)c(OC)c(OC)c2)cc1O`, the GI50 in experiment [1] was 0.0425 µM; in [2], below 0.01 µM; in experiment [3], 0.0103 µM; in experiment [4], below 0.01 µM; in [5], 1.6 µM; in experiment [6], 0.055 µM. The GI50 in [7] was 0.238 µM; in experiment [8], above 61.5 µM; in experiment [9], below 0.0155 µM; in experiment [10], 0.0367 µM. Moreover, the TGI in experiment [1] is above 100 µM; in experiment [2] it was above 100 µM; in [3] it was 0.0557 µM; in experiment [4], above 100 µM; in experiment [5], above 100 µM; in [6], above 100 µM. Further, the TGI in experiment [7], in [8], in experiment [9] and in experiment [10] was above 100 µM throughout.
